Common to all, as to assay: Protein kinase inhibition assay
Common to all, as to format: biochemical

In one assay the target is PKG1β(h) (Homo sapiens, UniProt Q13976). Particulars: read-out: percent residual activity of PKG1β(h). Here is the method: (§1) Certain compounds were tested for activity in protein kinase inhibition assays. All substrates were dissolved and diluted to working stocks in de-ionized water, apart from histone H1 (10× working stock in 20 mM MOPS pH 7.0), PDKtide (10× working stock in 50 mM Tris pH 7.0) ATF2 (which is typically stored at a 20× working stock in 50 mM Tris pH 7.5, 150 mM NaCl, 0.1 mM EGTA, 0.03% Brij-35, 50% glycerol, 1 mM benzamidine, 0.2 mM PMSF and 0.1% R-mercaptoethanol), KKLNRTLSFAEPG (SEQ ID NO:203) and RRRLSFAEPG (SEQ ID NO:204) (50 mM HEPES pH 7.4) and GGEEEEYFELVKKKK (SEQ ID NO:205) (20 mM MOPS pH 7.0). All kinases were pre-diluted to a 10× working concentration prior to addition into the assay. The composition of the dilution buffer for each kinase is detailed below.
In a final reaction volume of 25 μl, PKG1β (h) (5-10 mU) is incubated with 8 mM MOPS pH 7.0, 0.2 mM EDTA, 10 μM cGMP, 200 μM RRRLSFAEPG (SEQ ID NO:223), 10 mM MgAcetate and [gamma-33P-ATP] (specific activity approx. 500 cpm/pmol, concentration as required). The reaction is initiated by the addition of the MgATP mix. After incubation for 40 minutes at room temperature, the reaction is stopped by the addition of 5 μl of a 3% phosphoric acid solution. […]

Another assay has as its target PKBβ(h) (Homo sapiens, UniProt P31751). To be noted: read-out: percent residual activity of PKBβ(h). Here is the method:
as §1
(§2) In a final reaction volume of 25 μl, PKBβ (h) (5-10 mU) is incubated with 8 mM MOPS pH 7.0, 0.2 mM EDTA, 30 μM GRPRTSSFAEGKK (SEQ ID NO:232), 10 mM MgAcetate and [gamma-33P-ATP] (specific activity approx. 500 cpm/pmol, concentration as required). The reaction is initiated by the addition of the MgATP mix. After incubation for 40 minutes at room temperature, the reaction is stopped by the addition of 5 μl of a 3% phosphoric acid solution. 10 μl of the reaction is then spotted onto a P30 filtermat and washed three times for 5 minutes in 75 mM phosphoric acid and once in methanol prior to drying and scintillation counting.

In the next assay the target is Hck(h) (Homo sapiens, UniProt P08631). Particulars: read-out: percent residual activity of Hck(h). How it is done: as §1
In a final reaction volume of 25 μl, Hck (h) (5-10 mU) is incubated with 8 mM MOPS pH 7.0, 0.2 mM EDTA, 250 μM KVEKIGEGTYGVVYK (Cdc2 peptide) (SEQ ID NO:211), 10 mM MgAcetate and [gamma-33P-ATP] (specific activity approx. 500 cpm/pmol, concentration as required). The reaction is initiated by the addition of the MgATP mix. After incubation for 40 minutes at room temperature, the reaction is stopped by the addition of 5 μl of a 3% phosphoric acid solution. […]

In the next assay the target is MSK2(h) (Homo sapiens, UniProt O75676). To be noted: read-out: percent residual activity of MSK2(h). How it is done:
as §1
as §2, with “MSK2” for “PKBβ”, “NO:220),” for “NO:232),”

Another assay addresses MAPK2(m) (Mus musculus, UniProt P63085). Particulars: read-out: percent residual activity of MAPK2(m). Here is the method:
as §1
as §2, with “μl, MAPK2 (m)” for “μl, PKBβ (h)”, “with 25” for “with 8”, “mM Tris” for “mM MOPS”, “pH 7.5, 0.02” for “pH 7.0, 0.2”, “mM EGTA, 0.33 mg/ml myelin basic protein,” for “mM EDTA, 30 μM GRPRTSSFAEGKK (SEQ ID NO:232),”, “10 μpl” for “10 μl”

The target in the next assay is TrkA(h) (Homo sapiens, UniProt P04629). Particulars: read-out: percent residual activity of TrkA(h). How it is done:
as §1
as §2, with “μl, TrkA” for “μl, PKBβ”, “EDTA, 250” for “EDTA, 30”, “μM KKKSPGEYVNIEFG” for “μM GRPRTSSFAEGKK”, “ID NO:207),” for “ID NO:232),”

SMILES strings stand for the structures.

Sequence of PKG1β(h) (Q13976 1-686 isoform Q13976-2): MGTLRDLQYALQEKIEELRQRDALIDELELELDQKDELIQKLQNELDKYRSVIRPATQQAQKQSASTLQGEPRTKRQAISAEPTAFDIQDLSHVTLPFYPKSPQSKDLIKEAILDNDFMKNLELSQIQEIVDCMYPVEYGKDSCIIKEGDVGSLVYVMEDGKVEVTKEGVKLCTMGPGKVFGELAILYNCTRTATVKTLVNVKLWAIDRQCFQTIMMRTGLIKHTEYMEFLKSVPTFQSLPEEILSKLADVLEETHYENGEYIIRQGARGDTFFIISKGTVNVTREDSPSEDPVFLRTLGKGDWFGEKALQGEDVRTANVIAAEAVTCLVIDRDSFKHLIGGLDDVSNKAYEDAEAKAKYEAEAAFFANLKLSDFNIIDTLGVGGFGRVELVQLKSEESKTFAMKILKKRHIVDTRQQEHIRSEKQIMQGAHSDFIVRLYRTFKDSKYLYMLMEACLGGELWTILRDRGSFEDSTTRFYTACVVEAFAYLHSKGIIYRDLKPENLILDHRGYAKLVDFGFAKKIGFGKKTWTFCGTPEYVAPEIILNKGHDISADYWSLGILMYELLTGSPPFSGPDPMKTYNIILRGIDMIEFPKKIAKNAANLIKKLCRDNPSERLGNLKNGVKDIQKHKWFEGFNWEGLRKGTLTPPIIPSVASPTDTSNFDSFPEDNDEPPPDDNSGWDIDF
Sequence of TrkA(h) (P04629 33-796): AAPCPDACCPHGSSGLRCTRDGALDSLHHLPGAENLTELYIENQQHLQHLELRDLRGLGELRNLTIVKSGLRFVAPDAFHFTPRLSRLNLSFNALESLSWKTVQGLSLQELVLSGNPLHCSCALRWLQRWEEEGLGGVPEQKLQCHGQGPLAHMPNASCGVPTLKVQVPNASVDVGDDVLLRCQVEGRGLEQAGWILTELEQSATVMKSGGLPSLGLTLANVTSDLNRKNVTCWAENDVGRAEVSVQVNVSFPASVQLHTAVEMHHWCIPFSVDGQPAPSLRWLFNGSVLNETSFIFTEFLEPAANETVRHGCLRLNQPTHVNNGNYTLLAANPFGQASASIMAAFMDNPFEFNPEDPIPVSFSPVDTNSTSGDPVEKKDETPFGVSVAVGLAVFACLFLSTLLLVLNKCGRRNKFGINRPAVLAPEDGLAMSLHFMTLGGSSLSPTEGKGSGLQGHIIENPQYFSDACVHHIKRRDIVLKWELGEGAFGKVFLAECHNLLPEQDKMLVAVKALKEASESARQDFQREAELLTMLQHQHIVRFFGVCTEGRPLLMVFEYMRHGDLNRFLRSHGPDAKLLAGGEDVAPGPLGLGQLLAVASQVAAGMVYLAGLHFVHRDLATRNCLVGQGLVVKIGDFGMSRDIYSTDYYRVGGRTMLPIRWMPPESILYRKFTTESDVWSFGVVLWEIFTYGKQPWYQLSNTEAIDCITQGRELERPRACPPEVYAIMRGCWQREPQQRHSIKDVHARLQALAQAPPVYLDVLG
Sequence of Hck(h) (P08631 whole entry): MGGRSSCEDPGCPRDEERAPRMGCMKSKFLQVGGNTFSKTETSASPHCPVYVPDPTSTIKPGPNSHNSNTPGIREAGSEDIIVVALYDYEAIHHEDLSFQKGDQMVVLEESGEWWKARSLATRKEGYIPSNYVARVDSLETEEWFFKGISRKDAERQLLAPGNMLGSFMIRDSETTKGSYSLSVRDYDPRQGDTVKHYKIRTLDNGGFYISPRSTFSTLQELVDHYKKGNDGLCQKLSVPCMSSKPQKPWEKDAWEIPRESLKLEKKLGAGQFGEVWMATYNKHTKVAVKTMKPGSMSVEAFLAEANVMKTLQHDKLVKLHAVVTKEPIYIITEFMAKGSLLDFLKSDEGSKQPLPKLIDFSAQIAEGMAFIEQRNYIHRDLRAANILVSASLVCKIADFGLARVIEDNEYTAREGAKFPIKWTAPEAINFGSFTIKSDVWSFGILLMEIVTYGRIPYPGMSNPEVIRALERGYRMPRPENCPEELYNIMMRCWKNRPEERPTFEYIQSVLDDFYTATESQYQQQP
Sequence of MSK2(h) (O75676 whole entry): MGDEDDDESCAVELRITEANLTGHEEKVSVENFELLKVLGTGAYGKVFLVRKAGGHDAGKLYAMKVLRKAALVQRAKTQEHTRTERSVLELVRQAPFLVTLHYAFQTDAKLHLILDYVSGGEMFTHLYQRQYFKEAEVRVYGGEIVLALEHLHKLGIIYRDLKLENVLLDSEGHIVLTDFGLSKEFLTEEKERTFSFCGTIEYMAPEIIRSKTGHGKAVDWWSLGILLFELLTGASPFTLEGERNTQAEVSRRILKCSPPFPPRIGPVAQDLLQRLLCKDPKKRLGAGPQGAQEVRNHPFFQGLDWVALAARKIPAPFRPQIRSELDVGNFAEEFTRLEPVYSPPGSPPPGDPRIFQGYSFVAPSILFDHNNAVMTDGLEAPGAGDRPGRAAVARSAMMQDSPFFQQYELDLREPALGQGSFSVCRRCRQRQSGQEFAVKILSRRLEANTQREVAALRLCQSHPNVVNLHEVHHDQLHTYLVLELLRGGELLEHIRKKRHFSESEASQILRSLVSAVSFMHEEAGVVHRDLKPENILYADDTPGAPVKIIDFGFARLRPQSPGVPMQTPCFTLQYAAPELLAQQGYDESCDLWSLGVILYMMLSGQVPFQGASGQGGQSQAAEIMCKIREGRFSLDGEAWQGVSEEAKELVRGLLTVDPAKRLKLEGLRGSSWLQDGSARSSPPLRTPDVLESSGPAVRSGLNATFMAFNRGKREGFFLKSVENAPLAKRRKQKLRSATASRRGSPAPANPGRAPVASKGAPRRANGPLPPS
Sequence of PKBβ(h) (P31751 whole entry): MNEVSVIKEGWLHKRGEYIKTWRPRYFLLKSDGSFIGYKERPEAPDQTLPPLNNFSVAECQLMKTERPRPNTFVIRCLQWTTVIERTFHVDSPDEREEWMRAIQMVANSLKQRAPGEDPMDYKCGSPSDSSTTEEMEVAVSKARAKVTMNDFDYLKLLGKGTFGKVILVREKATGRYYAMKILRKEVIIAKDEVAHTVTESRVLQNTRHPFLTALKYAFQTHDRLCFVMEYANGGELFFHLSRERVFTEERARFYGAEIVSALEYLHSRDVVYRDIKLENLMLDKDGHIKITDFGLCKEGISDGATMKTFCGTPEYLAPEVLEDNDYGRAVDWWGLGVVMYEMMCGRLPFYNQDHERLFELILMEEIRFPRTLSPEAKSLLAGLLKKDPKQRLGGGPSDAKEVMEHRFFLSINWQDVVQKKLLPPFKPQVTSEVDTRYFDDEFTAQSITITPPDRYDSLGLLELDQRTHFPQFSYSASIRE
Sequence of MAPK2(m) (P63085 whole entry): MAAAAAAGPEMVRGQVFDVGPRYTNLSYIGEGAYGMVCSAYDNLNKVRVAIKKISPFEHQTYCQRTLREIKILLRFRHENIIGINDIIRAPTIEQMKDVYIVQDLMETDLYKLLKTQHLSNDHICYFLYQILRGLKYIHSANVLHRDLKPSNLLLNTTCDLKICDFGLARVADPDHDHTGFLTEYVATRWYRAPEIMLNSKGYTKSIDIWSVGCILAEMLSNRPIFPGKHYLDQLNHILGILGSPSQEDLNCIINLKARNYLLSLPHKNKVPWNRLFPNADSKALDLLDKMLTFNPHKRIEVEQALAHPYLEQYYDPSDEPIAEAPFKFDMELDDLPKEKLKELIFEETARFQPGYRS

Take `CN1CCCC1CCNC(=O)c1cn2c3c(c(N4CCC(c5cnccn5)C4)c(F)cc3c1=O)Oc1cc3ccccc3cc1-2` (stereo not drawn) [Compound A-1]: the remaining activity at 2.5 µM on PKG1β(h) was 48%; on PKBβ(h) it was 48%; on Hck(h) it was 84%; on MSK2(h) it was 50%; on MAPK2(m), 95%; at TrkA(h), 25%.

Regarding `CC(=O)N1CCN(c2ccc3c(=O)c(C(=O)NCCN4CCCC4)c4n(C)c5ccccc5n4c3n2)CC1` [Compound B-1], the remaining activity at 2.5 µM at PKG1β(h) is 107%; on PKBβ(h) it was 106%; on Hck(h) it was 89%; at MSK2(h) it was 94%; at MAPK2(m), 102%; at TrkA(h), 80%.
